Measured values taken from patent US12398154B2, “Azaquinazoline pan-KRas inhibitors” (Mirati Therapeutics, Inc., priority 2020, dated 2025).

What was measured:
KRas G12D = KRas G12D (Homo sapiens, UniProt P01116, G12D); assay: biochemical;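 further: TR-FRET displacement binding assay on KRas, read after a one-hour incubation at room temperature, IC50 fitted from percent-of-control values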
Procedure: (§2) The ability of a compound to bind to KRas was measured using a TR-FRET displacement assay. […] After a 60-minute incubation at room temperature, the reaction was measured using a BMG LABTECH CLARIO star Plus via TR-FRET. […] The POC values were fit to a 4-parameter IC50 equation and the IC50 value reported.

[1] = system: phospho-ERK in AsPC-1 (G12D) cells; assay: Inhibition of KRas-mediated phosphorylation of ERK (in-cell western); type: cell-based; conditions: Homo sapiens, ASPC1, 3 h, 3 hours compound, phospho-ERK normalized to GAPDH
Procedure, shortened: (§1)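 Cells treated 3 h with compounds (0.5% DMSO), fixed in formaldehyde and methanol-permeabilized. In-cell western for phospho-ERK (Thr202/Tyr204) normalized to GAPDH, as % of DMSO control; IC50 by 4-parameter fit.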

[2] = system: phospho-ERK in A549 (G12S) cells; assay: as above; type: cell-based; conditions: Homo sapiens, 3 hours compound, phospho-ERK normalized to GAPDH
Procedure, shortened: as §1

[3] = system: phospho-ERK in NCI-H460 (Q61H) cells; assay: as above; type: cell-based; conditions: Homo sapiens, NCI-H460, 3 h, 3 hours compound, phospho-ERK normalized to GAPDH
Procedure, shortened: as §1

[4] = system: phospho-ERK in NCI-H727 (G12V) cells; assay: as above; type: cell-based; conditions: Homo sapiens, NCI-H727, 3 h, 3 hours compound, phospho-ERK normalized to GAPDH
Procedure, shortened: as §1

[5] = system: phospho-ERK in MKN1 (WTdep) cells; assay: as above; type: cell-based; conditions: Homo sapiens, MKN-1, 3 hours compound, phospho-ERK normalized to GAPDH
Procedure, shortened: as §1

[6] = system: phospho-ERK in HCT116 (G13D) cells; assay: as above; type: cell-based; conditions: Homo sapiens, HCT-116, 3 hours compound, phospho-ERK normalized to GAPDH
Procedure, shortened: as §1

[7] = system: phospho-ERK in PSN-1 (G12R) cells; assay: as above; type: cell-based; conditions: Homo sapiens, PSN1, 3 hours compound, phospho-ERK normalized to GAPDH
Procedure, shortened: as §1

pERK in PSN1 cells = assay: Inhibition of KRas phosphorylation of ERK (Cisbio HTRF pERK assay); conditions: Homo sapiens, PSN1, 3 h, read-out: Inhibition (HTRF IC50) of KRas-mediated Phosphorylation of ERK, PSN1
pERK in A549 cells = assay: as above; conditions: Homo sapiens, A549, read-out: Inhibition (HTRF IC50) of KRas-mediated Phosphorylation of ERK, A549
Procedure: (§3) To harvest cells from flask using 0.05% Trypsin/EDTA solution. Add 10 mL of media to stop trypsinizing. Pipette the cells into a conical bottom 50 mL centrifuge tube and centrifuge 5 min×1000 rpm. • 2. Re-suspend the cell pellet in media, take a cell count, and then adjust the cell density using fresh media. • 3. Seed 6,000 cells into cell culture plate with 50 μL media. […] Incubate cell plate overnight in a 37° C., 5% CO2 incubator. • Compound titrations • 1. Use Tecan to complete the compound addition. Compounds start from 10 uM top, 3-fold dilution, and 10 doses. The final DMSO concentration is 0.8%. Dispensed 0.2 uM Trametinib as Min control. • 2. Incubate cell plate for 3 hrs in the incubator. • Detection with cisbio pERK HTRF kit • 1. […] At the end of the compound treatment, flick-off the media. • 3. Add 35 μL of lysis buffer per well using a Multidrop Combi. Then place on a plate agitator shaking at 300 rpm at 4° C. for 40 mins. • 4. Make up the HTRF antibody buffer. For each assay plate, mix 50 μL of d2-conjugate antibody with 950 μL of detection buffer. Similarly, mix 50 μL of Cryptate antibody with 950 μL of detection buffer. Then mix the two diluted antibodies together. • 5. Dispense 3.4 μL the antibody buffer to wells of an empty assay plate. Seal the plate and centrifuge plate 30 sec×1000 rpm. • 6. At the end of the 4° C. lysis, centrifuge the lysate plates 3 mins×1500 rpm. • 7. Use the Bravo to transfer 13.6 μL of lysate from cell culture plate to assay plate.
(§4) Then incubate assay plate for 2 hrs at room temperature. […] At the end of incubation, read plate on the Envision after centrifuging plate 30 sec× • 1000 rpm.

pERK in H727 cells = assay: as above; conditions: Homo sapiens, NCI-H727, read-out: Inhibition (HTRF IC50) of KRas-mediated Phosphorylation of ERK, H727
pERK in HCT116 cells = assay: as above; conditions: Homo sapiens, HCT-116, read-out: Inhibition (HTRF IC50) of KRas-mediated Phosphorylation of ERK, HCT116
pERK in H460 cells = assay: as above; conditions: Homo sapiens, NCI-H460, read-out: Inhibition (HTRF IC50) of KRas-mediated Phosphorylation of ERK, H460
pERK in MKN1 cells = assay: as above; conditions: Homo sapiens, MKN-1, 3 h, read-out: Inhibition (HTRF IC50) of KRas-mediated Phosphorylation of ERK, MKN1
KRas G12V = KRas G12V (Homo sapiens, UniProt P01116, G12V); assay: biochemical;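 further: KRas binding measured by TR-FRET displacement at room temperature, IC50 fitted from percent of control values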
Procedure: as §2

KRas G12R = KRas G12R (Homo sapiens, UniProt P01116, G12R); assay: biochemical;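 further: TR-FRET displacement assay of compound binding to KRas, read after one hour at room temperature, potency from a four-parameter fit of percent-of-control values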
Procedure: as §2

pERK in ASPC1 cells = assay: Inhibition of KRas phosphorylation of ERK (Cisbio HTRF pERK assay); conditions: Homo sapiens, ASPC1, read-out: Inhibition (HTRF IC50) of KRas-mediated Phosphorylation of ERK, AsPC-1
[8] = system: phospho-ERK in NCI-H358 (G12C) cells; assay: Inhibition of KRas-mediated phosphorylation of ERK (in-cell western); type: cell-based; conditions: Homo sapiens, 3 hours compound, phospho-ERK normalized to GAPDH
Procedure, shortened: as §1

KRas G12C = KRas G12C (Homo sapiens, UniProt P01116, G12C); assay: biochemical;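 further: binding to KRas assessed by TR-FRET displacement after one hour incubation at room temperature, potency fitted from percent-of-control values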
Procedure: as §2

pERK in H358 cells = assay: Inhibition of KRas phosphorylation of ERK (Cisbio HTRF pERK assay); conditions: Homo sapiens, NCI-H358, read-out: Inhibition (HTRF IC50) of KRas-mediated Phosphorylation of ERK, H358
Procedure: as §3, §4

Chain of KRas G12R (P01116 1-169 isoform P01116-2 G12R): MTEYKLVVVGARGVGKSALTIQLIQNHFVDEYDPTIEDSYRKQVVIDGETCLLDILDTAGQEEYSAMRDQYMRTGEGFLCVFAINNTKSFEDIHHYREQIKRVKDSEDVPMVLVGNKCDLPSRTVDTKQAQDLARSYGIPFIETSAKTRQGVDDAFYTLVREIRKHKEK
Chain of KRas G12V (P01116 1-169 isoform P01116-2 G12V): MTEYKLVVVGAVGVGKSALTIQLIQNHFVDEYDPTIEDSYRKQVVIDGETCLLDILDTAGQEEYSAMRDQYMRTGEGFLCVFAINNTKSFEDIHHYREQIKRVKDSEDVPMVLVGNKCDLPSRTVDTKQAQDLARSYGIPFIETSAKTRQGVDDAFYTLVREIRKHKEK
Chain of KRas G12D (P01116 1-169 isoform P01116-2 G12D): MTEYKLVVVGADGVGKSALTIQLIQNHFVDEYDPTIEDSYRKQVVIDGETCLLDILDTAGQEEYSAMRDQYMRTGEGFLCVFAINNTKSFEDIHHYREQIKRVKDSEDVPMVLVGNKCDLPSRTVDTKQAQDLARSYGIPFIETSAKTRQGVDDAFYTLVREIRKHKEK
Chain of KRas G12C (P01116 1-169 isoform P01116-2 G12C): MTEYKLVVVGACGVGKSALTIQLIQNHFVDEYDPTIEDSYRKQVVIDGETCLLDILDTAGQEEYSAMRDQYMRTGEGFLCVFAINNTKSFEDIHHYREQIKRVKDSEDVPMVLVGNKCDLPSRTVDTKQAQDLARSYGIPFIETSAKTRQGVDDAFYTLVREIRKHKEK

Compound	IC50 (KRas G12D) [nM]	IC50 [1] [nM]	IC50 [2] [nM]	IC50 [3] [nM]	IC50 [4] [nM]	IC50 [5] [nM]	IC50 [6] [nM]	IC50 [7] [nM]	IC50 (pERK in PSN1 cells) [nM]	IC50 (pERK in A549 cells) [nM]	IC50 (pERK in H727 cells) [nM]	IC50 (pERK in HCT116 cells) [nM]	IC50 (pERK in H460 cells) [nM]	IC50 (pERK in MKN1 cells) [nM]	IC50 (KRas G12V) [nM]	IC50 (KRas G12R) [nM]	IC50 (pERK in ASPC1 cells) [nM]	IC50 [8] [nM]	IC50 (KRas G12C) [nM]	IC50 (pERK in H358 cells) [nM]
CCc1c(F)ccc2cc(O)cc(-c3ncc4c(N5C[C@@H]6C[C@H](C5)[C@H](O)C6)nc(OC[C@@]56CCCN5C[C@H](F)C6)nc4c3F)c12 (single isomer, unassigned) [Example 140]	≤ 2	27	9	17	28	2	11	1	922	2	4	7	4	1	≤ 2	≤ 2	7	–	–	–
CCc1c(F)ccc2cc(O)cc(-c3ncc4c(NC56CC(O)(C5)C6)nc(OC[C@@]56CCCN5C[C@H](F)C6)nc4c3F)c12 [Example 166]	7	–	≥ 10000	–	≥ 10000	–	≥ 10000	≥ 10000	–	–	–	–	–	–	≤ 2	≤ 2	–	328	–	–
CCc1c(F)ccc2cc(O)cc(-c3ncc4c(NC5CS(=O)(=O)C5)nc(OC[C@@]56CCCN5C[C@H](F)C6)nc4c3F)c12 [Example 168]	5	–	≥ 10000	–	1800	–	821	≥ 10000	–	–	–	–	–	–	≤ 2	≤ 2	–	156	–	–
CCc1c(F)ccc2cc(O)cc(-c3ncc4c(N5CCCC(CS(N)(=O)=O)C5)nc(OC[C@@]56CCCN5C[C@H](F)C6)nc4c3F)c12 (some centres unmarked) [Example 170]	≤ 2	–	≥ 10000	–	3400	–	2350	≥ 10000	–	–	–	–	–	–	≤ 2	≤ 2	–	470	–	–
CCc1c(F)ccc2cc(O)cc(-c3ncc4c(Nc5ccc6cn[nH]c6c5)nc(OC[C@@]56CCCN5C[C@H](F)C6)nc4c3F)c12 [Example 171, 4-(4-((1H-indazol-6-yl)amino)-8-fluoro-2-(((2R,7aS)-2-fluorohexahydro-1H-pyrrolizin-7a-yl)methoxy)pyrido[4,3-d]pyrimidin-7-yl)-5-ethyl-6-fluoronaphthalen-2-ol]	89	–	≥ 10000	–	≥ 10000	–	≥ 10000	≥ 10000	–	–	–	–	–	–	3	9	–	≥ 10000	–	–
CCc1c(F)ccc2cc(O)cc(-c3ncc4c(Nc5ccc6cnn(C)c6c5)nc(OC[C@@]56CCCN5C[C@H](F)C6)nc4c3F)c12 [Example 174, 5-ethyl-6-fluoro-4-(8-fluoro-2-(((2R,7aS)-2-fluorohexahydro-1H-pyrrolizin-7a-yl)methoxy)-4-((1-methyl-1H-indazol-6-yl)amino)pyrido[4,3-d]pyrimidin-7-yl)naphthalen-2-ol]	89	–	4950	–	≥ 10000	–	≥ 10000	≥ 10000	–	–	–	–	–	–	4	13	–	1290	–	–
CCc1c(F)ccc2cc(O)cc(-c3ncc4c(NCC5CS(=O)(=O)C5)nc(OC[C@@]56CCCN5C[C@H](F)C6)nc4c3F)c12 [Example 177]	3	–	764	–	≥ 10000	–	1700	≥ 10000	–	–	–	–	–	–	≤ 2	≤ 2	–	54	–	–
CCc1c(F)ccc2cc(O)cc(-c3ncc4c(N5CCC[C@@H](O)C5)nc(OC[C@@]56CCCN5C[C@H](F)C6)nc4c3F)c12 [Example 193]	–	94	–	44	133	4	63	–	3790	44	36	82	42	7	–	–	8	41	–	–
CCc1c(F)ccc2cc(O)cc(-c3ncc4c(N5CCOC[C@@](C)(O)C5)nc(OC[C@@]56CCCN5C[C@H](F)C6)nc4c3F)c12 [Example 200]	–	47	3	22	67	3	21	–	1010	5	6	11	5	2	–	–	3	13	–	–
CCc1c(F)ccc2cc(O)cc(-c3ncc4c(N5CCC[C@@](C)(O)C5)nc(OCC5(CN6CCCC6)CC5)nc4c3F)c12 [Example 202, (3R)-1-[7-(8-ethyl-7-fluoro-3-hydroxy-1-naphthyl)-8-fluoro-2-[[1-(pyrrolidin-1-ylmethyl)cyclopropyl]methoxy]pyrido[4,3-d]pyrimidin-4-yl]-3-methyl-piperidin-3-ol]	≤ 2	60	–	74	159	3	–	–	2490	9	33	47	28	5	≤ 2	≤ 2	7	–	≤ 2	4
CCc1c(F)ccc2cc(O)cc(-c3ncc4c(N5CCCC(O)C5)nc(OC[C@@]56CCCN5C[C@H](F)C6)nc4c3F)c12 (stereo partly drawn) [Example 299, 1-(7-(8-ethyl-7-fluoro-3-hydroxynaphthalen-1-yl)-8-fluoro-2-(((2R,7aS)-2-fluorohexahydro-1H-pyrrolizin-7a-yl)methoxy)pyrido[4,3-d]pyrimidin-4-yl)piperidin-3-ol]	–	–	108	–	126	–	333	≥ 10000	–	–	–	–	–	–	–	–	–	29	–	–
CCc1c(F)ccc2cc(O)cc(-c3ncc4c(N5CCC[C@@](C)(O)C5)nc(OC[C@]56CCCN5[C@H](CO)CC6)nc4c3F)c12 [Example 302, (R)-1-(7-(8-ethyl-7-fluoro-3-hydroxynaphthalen-1-yl)-8-fluoro-2-(((3S,7aR)-3-(hydroxymethyl)tetrahydro-1H-pyrrolizin-7a(5H)-yl)methoxy)pyrido[4,3-d]pyrimidin-4-yl)-3-methylpiperidin-3-ol]	≤ 2	152	–	193	360	5	–	–	2530	65	82	179	120	3	≤ 2	≤ 2	31	–	–	26
